US9809621B2, “Stable peptide-based PACE4 inhibitors” (SOCPRA SCIENCES SANTÉ ET HUMAINES S.E.C., priority 2011, dated 2017)
Where “and” joins values, the source holds several entries; their conditions need not be identical. Equal values may be shown once. Read-outs that look alike come from different tables or passages of the source. Peptide text beside a SMILES is read from it. * marks the point of attachment. NH(4-amidinobenzyl) = N=C(N)c1ccc(CN*)cc1; X2 = N=C(N)NC/C=C/CN*

Columns and labels:
DU145 cells [1] = experiment: Stability following incubation with DU145 cells; assay type: in vitro ADME, human
Experimental: (§1) Multiple multi-Leu variants described in Table 1 were tested for their stability following incubation with DU145 cells, wherein their cellular stability and plasmatic half-life was measured.
(§2) Consequently, the multi-Leu peptide was further modified by the addition of amino acid analogues and/or with pseudo peptide bounds which increase the protection of the modified peptides from peptidase and protease degradation. Gains in stability were also measured in vitro in tumoral prostatic human cells (DU145). Increase in stability of the variants was also measured in vivo (FIG. 4).

PACE4 = target: T1, PACE4 (Homo sapiens, UniProt P29122); experiment: Inhibition constant (Ki) for PACE4; assay type: biochemical
T1 sequence (P29122 150-969): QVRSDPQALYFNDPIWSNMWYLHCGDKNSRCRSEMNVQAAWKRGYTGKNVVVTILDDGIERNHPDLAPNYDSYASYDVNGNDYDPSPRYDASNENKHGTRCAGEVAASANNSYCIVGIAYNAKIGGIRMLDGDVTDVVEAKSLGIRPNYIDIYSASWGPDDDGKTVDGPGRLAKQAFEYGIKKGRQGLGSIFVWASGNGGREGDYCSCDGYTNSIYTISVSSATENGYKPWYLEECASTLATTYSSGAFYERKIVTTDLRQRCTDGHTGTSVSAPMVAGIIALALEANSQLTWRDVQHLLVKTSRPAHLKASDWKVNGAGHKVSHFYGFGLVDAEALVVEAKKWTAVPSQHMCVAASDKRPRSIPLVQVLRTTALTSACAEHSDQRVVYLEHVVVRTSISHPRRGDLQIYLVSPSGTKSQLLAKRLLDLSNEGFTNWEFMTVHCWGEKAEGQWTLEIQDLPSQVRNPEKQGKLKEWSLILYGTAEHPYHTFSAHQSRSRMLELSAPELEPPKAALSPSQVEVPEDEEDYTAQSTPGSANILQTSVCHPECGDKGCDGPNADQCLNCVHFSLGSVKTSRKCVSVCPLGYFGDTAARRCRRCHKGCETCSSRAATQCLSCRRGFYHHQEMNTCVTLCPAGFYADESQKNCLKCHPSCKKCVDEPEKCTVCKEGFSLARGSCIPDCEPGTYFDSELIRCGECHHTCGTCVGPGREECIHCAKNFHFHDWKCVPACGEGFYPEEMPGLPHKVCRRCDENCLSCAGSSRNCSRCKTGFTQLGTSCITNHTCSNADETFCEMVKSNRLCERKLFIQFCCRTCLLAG

[2] = Plasmatic half-life / degradation by plasmatic protease; assay type: in vitro ADME; settings: for half-life: plasma
Experimental: as §1
Stabilisation strategy for multi-Leu variants was also assessed in presence of plasmatic protease. 8 variants protected at their N-terminal leucines were tested in order to establish their level of degradation since it is expected that N-terminal degradation will occur in absence of any modifications other than acetylation. Variants tested with azaβ3-leucine at each individual position and “click” bonds between the different leucines of the N-terminal part of the variants were protected against degradation (see FIG. 3 for modifications).

[3] = Stability following incubation with DU145 cells; assay type: in vitro ADME, human; settings: human, DU145 cells, Table 1, read-out: Stability (% remaining after 48 h)
Experimental: as §1, §2

PC3 cells = experiment: MTT proliferation assay in PC3 cells; assay type: cell-based; settings: FIG. 1B
DU145 cells [4] = settings: MTT
LNCaP cells [5] = experiment: Cell cycle analysis (DNA content, flow cytometry) of LNCaP cells; assay type: cell-based; settings: for Cell cycle effect (in words): 100 μM or 200 μM, FIG. 11; for Cells in G0/G1 phase / Cells in G2/M phase / Cells in S phase / Cells in Sub-G1 (hypodiploid DNA content, apoptotic): 96 hours
Experimental: In order to obtain further support for the antiproliferation effects observed, a DNA content analysis was performed on LNCaP treated cells with 100 μM or 200 μM of ML-peptide and the modified analog […] (FIG. 11). […] Following a 200 μM treatment with the Ac-[D-Leu]LLLRVKR-NH2, a 10% increase in the G0/G1 population was observed along with an increased in cells with hypodiploid DNA content (sub-G1) proportions, which represent apoptotic cells.
To perform cell cycle analysis on LNCaP, 4×10^5 cells are seeded in 10 cm culture dish and grown for 24 hours without treatment. Cells are then treated with vehicle (0.1% DMSO) or with 100 μM or 200 μM of peptides Ac-LLLLRVKR-NH2 or Ac-[D-Leu]LLLRVKR-NH2. Treatments are carried out in complete medium (10% FBS) for a period of 96 hours and cell media is changed every 24 hours to offset peptide degradation. Cells are harvested using trypsin, washed once with PBS, resuspended in 0.5 mL PBS and fixed by drop wise addition of 1.5 mL of ice-cold ethanol. After a 30 minutes incubation at room temperature, cells are washed with PBS and DNA staining is performed in 20 mM HEPES pH 7.2, 0.16M NaCl, 1 mM EGTA buffer containing 10 μg/mL of RNAseA and 10 μg/mL of propidium iodine.
Flow cytometry is performed using a FACScan™ cytometer (Becton Dickinson, Mountain View, Calif.) equipped with a 15 mW argon ion laser tuned at 488 nm. A minimum of 10 000 gated events by sample are acquired. Forward and side scatter signals are used to establish the live gate to exclude debris and cell clumps and a second live gate is set using the FL3-A and FL3-W parameters of the doublet discrimination module (DDM), allowing single cell measurements. The percentages of cells in different phases of cell cycle are calculated by ModFit software (Verity Software House, Topsham, Me.).

LNCaP cells [6] = settings: MTT
furin = furin (Homo sapiens, UniProt P09958); experiment: Inhibition constant (Ki) for furin; assay type: biochemical
Sequence of furin (P09958 108-794): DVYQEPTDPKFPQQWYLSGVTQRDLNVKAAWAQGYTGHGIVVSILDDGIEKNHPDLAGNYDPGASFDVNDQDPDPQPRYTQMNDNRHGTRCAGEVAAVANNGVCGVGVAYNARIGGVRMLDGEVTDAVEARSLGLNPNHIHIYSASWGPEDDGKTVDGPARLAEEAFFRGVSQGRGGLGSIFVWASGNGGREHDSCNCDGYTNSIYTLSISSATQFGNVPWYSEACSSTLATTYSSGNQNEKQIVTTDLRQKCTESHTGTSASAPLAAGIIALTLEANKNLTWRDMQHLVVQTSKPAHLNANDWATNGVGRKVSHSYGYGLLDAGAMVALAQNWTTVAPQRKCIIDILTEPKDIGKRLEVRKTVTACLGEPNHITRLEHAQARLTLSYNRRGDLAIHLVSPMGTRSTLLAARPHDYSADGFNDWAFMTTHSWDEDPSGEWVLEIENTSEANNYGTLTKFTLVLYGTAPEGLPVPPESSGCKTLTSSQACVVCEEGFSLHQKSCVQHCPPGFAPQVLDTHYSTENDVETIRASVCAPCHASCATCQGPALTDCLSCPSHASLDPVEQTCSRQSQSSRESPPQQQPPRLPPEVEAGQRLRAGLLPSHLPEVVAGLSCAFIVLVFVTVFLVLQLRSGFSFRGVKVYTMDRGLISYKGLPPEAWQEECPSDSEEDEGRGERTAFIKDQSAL

Fig. 4 = experiment: Fig. 4
Source text: Table printed on a drawing sheet, Fig. 4
The patent's description of the figure: FIG. 4 illustrates plasmatic half-life curves measured for multi-Leu variants tested.
First reader's note: The table also serves as legend for the numbered curves of the adjacent plot; the unit (h) and ± errors stand in the cells, with decimal commas as printed.

LNCaP tumors = experiment: Intratumoral treatment of LNCaP tumors in immunosuppressed mice; settings: LNCaP tumors, FIG. 9
[7] = read-out: IC50 (μM) DU145, Table 4, DU145 cells

Compound	Stability (% remaining after 48 h) (DU145 cells [1]; Table 2)	Ki (PACE4; Ki for PACE4, Table 1)	Selectivity index PACE4/furin (PACE4; Table 3)	half-life ([2]; Table 1) [h]	half-life ([2]; Table 2) [h]	remaining at 48 h [3] [%]	IC50 (DU145 cells [4]; [7]) [µM]	Cell cycle effect (in words) (LNCaP cells [5])	Cells in G0/G1 phase (LNCaP cells [5]; 100 μM) [%]	Cells in G2/M phase (LNCaP cells [5]; 100 μM) [%]	Cells in S phase (LNCaP cells [5]; 100 μM) [%]	Cells in Sub-G1 (hypodiploid DNA content, apoptotic) (LNCaP cells [5]; 100 μM) [%]	Cells in G0/G1 phase (LNCaP cells [5]; 200 μM) [%]	Cells in G2/M phase (LNCaP cells [5]; 200 μM) [%]	Cells in S phase (LNCaP cells [5]; 200 μM) [%]	Cells in Sub-G1 (hypodiploid DNA content, apoptotic) (LNCaP cells [5]; 200 μM) [%]	Ki (furin) [nM]	other results
CC(=O)N[C@@H](CC(C)C)C(=O)N[C@@H](CC(C)C)C(=O)N[C@@H](CC(C)C)C(=O)N[C@@H](CC(C)C)C(=O)N[C@@H](CCCN=C(N)N)C(=O)N[C@H](C(=O)N[C@@H](CCCCN)C(=O)NCc1ccc(C(=N)N)cc1)C(C)C [ML-[AMBA]^P1, Ac-LLLLRVK-[AMBA]] (Ac-LLLLRVK-{NH(4-amidinobenzyl)})	≃80%																	Stability (% remaining after 48 h) (DU145 cells [1]; Table 1): ≃80%
Ac-LLLLRVKR-NH2 [Multi-Leu (ML), Ac-LLLLRVKR-NH2, reference compound]	56%	38 nM	19	2.1 ± 0.2	2.1 ± 0.2	56	187 ± 44	dose-dependant G0/G1 accumulation and S phase decrease	79.7 ± 0.4	8.4 ± 0.6	11.9 ± 0.2	1.0 ± 0.0	81.5 ± 0.0	9.2 ± 0.1	9.3 ± 0.1	4.8 ± 1.7	722	Inhibition of PC3 cell proliferation (in words) (PC3 cells): very poor inhibition; IC50 (DU145 cells [4]; read-out: IC50 cellular proliferation DU145, FIG. 1B/1C): 103 ± 29 µM; IC50 (LNCaP cells [6]; read-out: IC50 cellular proliferation LNCaP, FIG. 1B/1D): 180 ± 57 µM
Ac-LLLLRVKR-NH2 [6: ML]																		plasmatic half-life (Fig. 4): 2,1±0,2h
CC(=O)N[C@@H](CC(C)C)C(=O)N[C@@H](CC(C)C)C(=O)N[C@@H](CC(C)C)C(=O)N[C@@H](CC(C)C)C(=O)N[C@@H](CCCNC(=N)N)C(=O)N[C@H](C(=O)N[C@@H](CCCCN)C(=O)NC/C=C/CNC(=N)N)C(C)C [ML-[ΔR-CO2]^P1, Ac-LLLLRVK-[ΔR-COO]] (Ac-LLLLRVK-X2)	70%		11.4			70												Selectivity for PACE4 over furin (time more selective) (PACE4): 11.4; Ki (PACE4; Table 1, read-out: Ki for PACE4): 14 nM; Ki (furin; Table 3, read-out: Ki Furin): 160 nM
CC(=O)N[C@H](CC(C)C)C(=O)N[C@@H](CC(C)C)C(=O)N[C@@H](CC(C)C)C(=O)N[C@@H](CC(C)C)C(=O)N[C@@H](CCCNC(=N)N)C(=O)N[C@H](C(=O)N[C@@H](CCCCN)C(=O)N[C@@H](CCCNC(=N)N)C(N)=O)C(C)C [[D-Leu]^P8-ML, Ac-[D-Leu]-LLLRVKR-NH2]		52 nM and 33 nM	≈20	~9	6.3	48	66 ± 26	dose-dependant G0/G1 accumulation and S phase decrease	79.3 ± 1.0	8.9 ± 0.5	11.8 ± 0.5	0.4 ± 0.6	83.4 ± 0.0	8.3 ± 0.1	8.4 ± 0.1	11.8 ± 2.7	516	Plasmatic concentration of PSA (in words) (LNCaP tumors): decreased; Ki (PACE4; Ki PACE4 (nM), Table 3): 3 nM; plasmatic half-life ([2]; Table 1): 6.3 h; Cells with hypodiploid DNA content (sub-G1) proportions (in words) (LNCaP cells [5]; 200 μM treatment): increased; Increase in the G0/G1 population (LNCaP cells [5]; 200 μM treatment): 10%; IC50 (LNCaP cells [6]; read-out: IC50 (μM) LNCaP, Table 4, LNCaP cells): 181 ± 59 µM
